Measurements taken from ChEMBL document CHEMBL1201862, “PubChem BioAssay data set” (2004).
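Cultured in 96-well plates, cells were exposed to test compound for 48 hours across five concentrations. The concentration for 50% growth inhibition is given as GI50.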 Calls of active or inactive are those of the source. No stated cut-off is given here; in the data, active = GI50 up to about 1.1 µM and inactive = higher.

How the values were obtained:
Assay in all cases: DTP human tumour cell line panel, 48 h
DLD-1 = system: DLD-1
DMS-273 = system: DMS-273
HOP-18 = system: HOP-18
SNB-78 = system: SNB-78
RXF 631 = system: RXF 631
DMS-114 = system: DMS-114
LXFL 529 = system: LXFL 529
KM-20L2 = system: KM-20L2
XF498 = system: XF498

Measured: GI50

CCc1ccccc1NC(=O)C(=O)CC(=O)c1sc(Nc2ccccc2)nc1C
inactive: DLD-1 > 100 µM | DMS-273 > 100 µM | HOP-18 > 100 µM | SNB-78 > 100 µM | RXF 631 > 100 µM | DMS-114 > 100 µM | LXFL 529 > 100 µM | KM-20L2 > 100 µM | XF498 > 100 µM

COC(=O)C(=O)C(CC(=O)Nc1ccc(C)cc1)C(=O)OC (configuration not stated)
inactive: DLD-1 > 100 µM | HOP-18 > 100 µM | SNB-78 > 100 µM | RXF 631 > 100 µM | DMS-114 > 100 µM | LXFL 529 > 100 µM | KM-20L2 > 100 µM | XF498 > 100 µM

Cc1ccccc1NC(=O)CC(=O)n1nc(-c2ccccc2)c(/N=N/c2ccc([N+](=O)[O-])cc2)c1-c1ccccc1
inactive: DLD-1 18.7 µM | DMS-273 21 µM | HOP-18 16.5 µM | SNB-78 26.9 µM | RXF 631 12.4 µM | DMS-114 10.6 µM | LXFL 529 24.9 µM | KM-20L2 16.7 µM | XF498 21.8 µM

CCCO/S(=N\S(=O)(=O)c1ccccc1)c1ccccc1[N+](=O)[O-] (configuration not stated)
inactive: DLD-1 > 100 µM | DMS-273 > 100 µM | SNB-78 > 100 µM | RXF 631 > 100 µM | DMS-114 > 100 µM | LXFL 529 > 100 µM | KM-20L2 > 100 µM | XF498 > 100 µM

O=C(NCCCCCCNC(=O)c1cccc2ccccc12)c1cccc2ccccc12
inactive: DLD-1 59.7 µM | DMS-273 2.02 µM | HOP-18 24.6 µM | SNB-78 5.42 µM | RXF 631 47.2 µM | DMS-114 > 100 µM | LXFL 529 57.1 µM | KM-20L2 > 100 µM | XF498 3.2 µM

CC(C)(C)c1cc(CCC(=O)Nc2ccc(Cl)cc2)nc(S)n1
inactive: DLD-1 > 100 µM | DMS-273 > 100 µM | HOP-18 > 100 µM | RXF 631 > 100 µM | DMS-114 > 100 µM | LXFL 529 > 100 µM | KM-20L2 > 100 µM | XF498 > 100 µM

C=CCCCN1CCCC(C)C1=S (configuration not stated)
inactive: DLD-1 > 100 µM | DMS-273 > 100 µM | HOP-18 > 100 µM | RXF 631 > 100 µM | DMS-114 > 100 µM | KM-20L2 > 100 µM | XF498 > 100 µM

COC(=O)c1ccccc1NC(=O)C(=O)NNC(=O)c1ccncc1
inactive: DLD-1 > 100 µM | DMS-273 > 100 µM | HOP-18 > 100 µM | RXF 631 > 100 µM | DMS-114 > 100 µM | LXFL 529 > 100 µM | KM-20L2 > 100 µM | XF498 > 100 µM

CCOC(=O)NC(=O)c1cn(CC(=O)NCC(=O)NCC(=O)N2CCN(CCn3c(C)nc(C(N)=O)c3N)CC2)c(=O)[nH]c1=O
inactive: DLD-1 > 100 µM | HOP-18 > 100 µM | SNB-78 > 100 µM | RXF 631 > 100 µM | DMS-114 > 100 µM | LXFL 529 > 100 µM | KM-20L2 > 100 µM | XF498 > 100 µM

O=c1[nH]nc2ccccc2c1Cl
inactive: DLD-1 10.4 µM | DMS-273 16.3 µM | HOP-18 15.7 µM | SNB-78 13.3 µM | RXF 631 12.9 µM | DMS-114 4.89 µM | KM-20L2 14.6 µM | XF498 14.5 µM
